Measured values taken from patent US10596291B2, “Effective anti-bacteria and anti-viral air treatment device” (KONINKLIJKE PHILIPS N.V., priority 2014, dated 2020).
Where two headings read alike, the source gives them in different places.

Assay: Particle generation and ozone consumption by type of terpene in 26.5 m^3 test chamber
Format: physicochemical
Description: Some further measurements were done with setups as describe above. Data in relation to particle generation and ozone consumption as function of type of terpene were determined. […] It is clear that e.g. eucalyptol and thymol is most desired amongst these four options.

[1] = terpene approx. 1 mg/m^3, 26.5 m^3 test chamber, initial ozone 100 ppb
[2] = terpene concentration 1 mg/m^3, 26.5 m^3 test chamber, initial ozone 100 ppb

Compound | Particle yield [1] | average O3 consumption [2] | Particle yield | average O3 consumption
Cc1ccc(C(C)C)cc1O [Carvacrol] |  |  | 851.8 10^6/mol | 0%
C=CCc1ccc(O)c(OC)c1 [Eugenol] | 18742.9 10^6/mol | 15% |  | 
Cc1ccc(C(C)C)c(O)c1 [Thymol] | 498.2 10^6/mol | 2% |  | 
y-terpinene |  |  | 112499.9 10^6/mol | 19%

The next lines start with results.

Particle yield [1] | average O3 consumption [2] | Compound | Particle yield | average O3 consumption
779.9 10^6/mol | 2% | CC12CCC(CC1)C(C)(C)O2 [Eucalyptol, Eucalyptol (1,8-cineol)] |  | 
57608.1 10^6/mol | 54% | CC(C)=CCC/C(C)=C/CO [Geraniol] |  | 
94003.4 10^6/mol | 31% | C=C(C)[C@H]1CC=C(C)CC1 [Limonene] |  | 
76911.2 10^6/mol | 44% | C=CC(C)(O)CCC=C(C)C (stereo not shown) [Linalool] |  | 
